According to patent US20180273528A1 (LES LABORATOIRES SERVIER, priority 2015, published 2018):

What was measured:
[1] = target: T1, DYRK1A (Homo sapiens, UniProt Q13627); assay: Cellular DYRK1 autophosphorylation assay in U2-OS cells; assay type: cell-based; design: full-length, wild-type human DYRK1A (NM_001396) with an HA tag; expressed in transfected cells; host or cells: human U2-OS osteosarcoma cells, transient transfection of a pcDNA3.1 plasmid; details: U2-OS cells transfected with HA-tagged human DYRK1A, 5 hours exposure; read-out: IC50 (μM) P-Ser520-Dyrk1A -Cell assay
Method in brief: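 U2-OS cells treated with a compound concentration range for 5 h. Phospho-Ser520-DYRK1A measured by western blot densitometry or Mesoscale ELISA. IC50 from dose-response curves; for blots, ratio of phospho-Ser520 to total DYRK1A signal.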

[2] = target: T1, DYRK1A; assay: Kinase TR-FRET assay, DYRK1A; assay type: biochemical; design: full-length, wild-type human DYRK1A (NM_001396) with an HA tag; expressed in transfected cells; host or cells: human U2-OS osteosarcoma cells, transient transfection of a pcDNA3.1 plasmid; details: full-length human kinase, 10 μM ATP
Protocol: (§1) Inhibition of the enzymatic activity of human kinases was evaluated in a Time-Resolved Fluorescence Resonance Energy Transfer (TR-FRET) assay in 384-well reaction plates. […] Test compounds of the invention were added in reaction buffer at a range of concentrations from 0.1 nM to 30 μM. Following addition of EDTA (Sigma E7889, 10 mM) to stop the reaction, Europium-labelled mouse monoclonal antibody recognizing phospho-Thr232 in MBP (Perkin Elmer TRF0201, 1 nM) was added.

[3] = target: T2, CDK9 (Homo sapiens, UniProt P50750); assay: Kinase TR-FRET assay, CDK9; assay type: biochemical; details: full-length human kinase, 10 μM ATP
T2 construct: full-length human kinases from Carna Biosciences; purchased Carna Biosciences 04-110
Protocol: Inhibition of the enzymatic activity of human kinases was evaluated in a Time-Resolved Fluorescence Resonance Energy Transfer (TR-FRET) assay in 384-well reaction plates. In this assay, full-length human kinases from Carna Biosciences—DYRK1A (NM_001396, ref. 04-130; 2.0 ng/μl), DYRK1B (NM_004714, ref. 04-131; 1.2 ng/p), CLK1 (NM_001162407, ref. 04-126; 0.7 ng/μl), CDK9 (NM_001261, ref. 04-110; 0.9 ng/μl), or GSK3β (NM_001146156, ref. 04-141; 2.0 ng/μl—were incubated for 40 minutes (DYRK1A and DYRK1B) or 100 minutes (CLK1, CDK9 and GSK3β) at room temperature with ATP (Sigma A2383, 10 μM) and a ULight™-labelled human Myelin Basic Protein (MBP) peptide substrate (Perkin Elmer TRF0109, 100 nM) in a reaction buffer composed of 50 mM HEPES pH7.4, 1 mM EGTA, 10 mM MgCl2, 2 mM DTT and 0.01% Tween20. Test compounds of the invention were added in reaction buffer at a range of concentrations from 0.1 nM to 30 μM. Following addition of EDTA (Sigma E7889, 10 mM) to stop the reaction, Europium-labelled mouse monoclonal antibody recognizing phospho-Thr232 in MBP (Perkin Elmer TRF0201, 1 nM) was added. After one hour, the reaction plates were read using a fluorescence reader (EnVision®, Perkin Elmer) at 620 nm and 665 nm (excitation at 340 nm); when the Europium donor fluorophore is excited by light at 340 nm, an energy transfer (620 nm) to the acceptor occurs, which will then emit light at 665 nm.

[4] = target: T3, His-TEV-DYRK1A Kinase domain (aa127-485) (Homo sapiens, UniProt Q13627); assay: Kinase ADP assay (ADP Hunter), DYRK1A kinase domain; assay type: biochemical; details: 20 μM ATP
T3 construct: His-TEV-DYRK1A Kinase domain (aa127-485); His tag (N); TEV protease cleavage site (N)
Method in brief: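 Compounds incubated 10 min at 30 °C with 20 nM enzyme, 40 μM peptide substrate and 20 μM ATP in pH 7.4 Hepes buffer with 10 mM MgCl2. ADP formed detected by ADP Hunter Plus reagents after 20 min at 30 °C, fluorescence read at 590 nm.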

[5] = target: T4, DYRK1B (Homo sapiens, UniProt Q9Y463); assay: Kinase TR-FRET assay, DYRK1B; assay type: biochemical; details: full-length human kinase, 10 μM ATP
T4 construct: full-length human kinases from Carna Biosciences; purchased Carna Biosciences 04-131
Protocol: as §1

T2 sequence (P50750 whole entry): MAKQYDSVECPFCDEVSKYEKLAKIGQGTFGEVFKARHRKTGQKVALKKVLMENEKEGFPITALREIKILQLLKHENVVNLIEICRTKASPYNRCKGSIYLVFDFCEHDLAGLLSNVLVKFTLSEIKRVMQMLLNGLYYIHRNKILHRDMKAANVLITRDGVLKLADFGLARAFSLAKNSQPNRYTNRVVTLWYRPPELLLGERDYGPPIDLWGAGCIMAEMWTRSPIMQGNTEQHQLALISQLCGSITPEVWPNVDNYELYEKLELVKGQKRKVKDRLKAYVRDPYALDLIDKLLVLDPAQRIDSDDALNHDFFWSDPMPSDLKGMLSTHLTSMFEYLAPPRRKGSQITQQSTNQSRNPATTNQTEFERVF
T2 sequence (O60563 whole entry partner): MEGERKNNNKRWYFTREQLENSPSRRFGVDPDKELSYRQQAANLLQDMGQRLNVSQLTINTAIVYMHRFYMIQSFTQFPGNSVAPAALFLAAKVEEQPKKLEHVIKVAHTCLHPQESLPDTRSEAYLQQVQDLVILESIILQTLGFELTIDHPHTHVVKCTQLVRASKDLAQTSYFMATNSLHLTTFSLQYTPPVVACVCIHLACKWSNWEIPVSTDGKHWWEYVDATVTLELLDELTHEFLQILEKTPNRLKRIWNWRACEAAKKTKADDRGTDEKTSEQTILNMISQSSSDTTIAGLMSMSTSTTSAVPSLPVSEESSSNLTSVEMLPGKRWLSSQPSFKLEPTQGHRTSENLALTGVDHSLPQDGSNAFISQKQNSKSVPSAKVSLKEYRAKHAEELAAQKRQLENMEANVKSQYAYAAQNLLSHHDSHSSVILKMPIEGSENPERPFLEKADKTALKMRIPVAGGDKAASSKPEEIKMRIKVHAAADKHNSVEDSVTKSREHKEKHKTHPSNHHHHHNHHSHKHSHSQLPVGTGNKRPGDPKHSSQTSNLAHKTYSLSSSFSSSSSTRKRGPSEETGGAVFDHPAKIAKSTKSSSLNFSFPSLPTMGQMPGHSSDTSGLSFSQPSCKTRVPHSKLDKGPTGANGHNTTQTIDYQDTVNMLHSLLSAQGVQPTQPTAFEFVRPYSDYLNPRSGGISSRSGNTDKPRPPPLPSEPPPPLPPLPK
T4 sequence (Q9Y463 whole entry): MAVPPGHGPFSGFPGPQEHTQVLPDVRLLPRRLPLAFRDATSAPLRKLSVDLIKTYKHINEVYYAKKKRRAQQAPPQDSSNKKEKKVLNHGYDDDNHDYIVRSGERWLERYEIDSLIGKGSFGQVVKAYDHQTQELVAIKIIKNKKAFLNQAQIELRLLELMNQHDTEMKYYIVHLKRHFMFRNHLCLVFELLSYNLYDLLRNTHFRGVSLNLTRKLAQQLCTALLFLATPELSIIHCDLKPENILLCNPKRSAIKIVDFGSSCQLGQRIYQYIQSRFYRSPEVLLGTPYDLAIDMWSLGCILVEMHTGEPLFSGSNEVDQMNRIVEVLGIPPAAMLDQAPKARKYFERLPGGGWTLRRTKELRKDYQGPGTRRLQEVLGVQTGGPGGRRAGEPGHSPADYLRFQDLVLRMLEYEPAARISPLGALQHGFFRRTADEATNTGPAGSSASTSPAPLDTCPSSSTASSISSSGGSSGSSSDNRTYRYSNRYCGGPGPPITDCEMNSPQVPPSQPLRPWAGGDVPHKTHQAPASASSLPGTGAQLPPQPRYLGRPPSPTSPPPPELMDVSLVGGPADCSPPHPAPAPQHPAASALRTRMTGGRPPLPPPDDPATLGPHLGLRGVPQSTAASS

| IC50 [1] [µM] | IC50 [2] [µM] | IC50 [3] [µM] | IC50 [4] [µM] | IC50 [5] [µM] | Compound |
| --- | --- | --- | --- | --- | --- |
| 0.23 | 0.02 | 2.57 | 0.02 |  | Cc1nc2ccc(-c3cc(N)nc(N)c3)nc2n1CCO [Example 3, 2-[5-(2,6-diaminopyridin-4-yl)-2-methyl-3H-imidazo[4,5-b]pyridin-3-yl]ethanol] |
| 0.25 | 0.015 | 1.26 | 0.011 |  | Cc1nc2ccc(-c3cc(N)nc(N)c3)nc2n1C [Example 4, 4-(2,3-dimethyl-3H-imidazo[4,5-b]pyridin-5-yl)pyridine-2,6-diamine] |
|  | 0.07 | 2.38 | 0.079 |  | Cc1nc2ccc(-c3cc(N)nc(N)c3)nc2n1Cc1cccnc1 [Example 7, 4-[2-methyl-3-(pyridin-3-ylmethyl)-3H-imidazo[4,5-b]pyridin-5-yl]pyridine-2,6-diamine] |
|  | 0.015 | 12.5 | 0.053 |  | Cc1nc2ccc(-c3cc(N)nc(N)c3)nc2n1CCc1cnn(-c2ccccc2)c1 [Example 21, 4-{2-methyl-3-[2-(1-phenyl-1H-pyrazol-4-yl)ethyl]-3H-imidazo[4,5-b]pyridin-5-yl}pyridine-2,6-diamine] |
|  |  | 5.7 |  |  | Cc1nc2ccc(-c3cc(N)nc(N)c3)nc2n1CC(F)(F)F [Example 28, 4-[2-methyl-3-(2,2,2-trifluoroethyl)-3H-imidazo[4,5-b]pyridin-5-yl]pyridine-2,6-diamine] |
|  | 0.029 | 1.99 | 0.057 |  | Cc1nc2ccc(-c3cc(N)nc(N)c3)nc2n1Cc1cc(OC(F)(F)F)ccc1F [Example 50, 4-{3-[2-fluoro-5-(trifluoromethoxy)benzyl]-2-methyl-3H-imidazo[4,5-b]pyridin-5-yl}pyridine-2,6-diamine] |
|  |  | 1.31 |  |  | Cc1nc2ccc(-c3cc(N)nc(N)c3)nc2n1C(C)C [Example 53, 4-[2-methyl-3-(propan-2-yl)-3H-imidazo[4,5-b]pyridin-5-yl]pyridine-2,6-diamine] |

Second part, the molecule before the results:

| Compound | IC50 [1] [µM] | IC50 [2] [µM] | IC50 [3] [µM] | IC50 [4] [µM] | IC50 [5] [µM] |
| --- | --- | --- | --- | --- | --- |
| Cc1nc2ccc(-c3cc(N)nc(N)c3)nc2n1C1Cc2ccccc2C1 [Example 12, 4-[3-(2,3-dihydro-1H-inden-2-yl)-2-methyl-3H-imidazo[4,5-b]pyridin-5-yl]pyridine-2,6-diamine] | 0.07 | 0.002 |  | 0.009 | 0.003 |
| Cc1nc2ccc(-c3cc(N)nc(N)c3)nc2n1C1CCCCC1 [Example 54, 4-(3-cyclohexyl-2-methyl-3H-imidazo[4,5-b]pyridin-5-yl)pyridine-2,6-diamine] | 0.023 | 0.003 |  | 0.006 | 0.003 |
| Cc1nc2ccc(-c3cc(N)nc(N)c3)nc2n1CC1CCCCC1 [Example 55, 4-[3-(cyclohexylmethyl)-2-methyl-3H-imidazo[4,5-b]pyridin-5-yl]pyridine-2,6-diamine] | 0.16 | 0.002 |  | 0.024 | 0.021 |
| Cc1nc2ccc(-c3cc(N)nc(N)c3)nc2n1C12CC3CC(CC(C3)C1)C2 [Example 56, 4-{2-methyl-3-tricyclo[3.3.1.1^3,7]dec-1-yl-3H-imidazo[4,5-b]pyridin-5-yl}pyridine-2,6-diamine] |  | 0.009 | 0.357 | 0.015 |  |
| CCCc1nc2ccc(-c3cc(N)nc(N)c3)nc2n1C1CCCC1 [Example 160, 4-(3-cyclopentyl-2-propyl-3H-imidazo[4,5-b]pyridin-5-yl)pyridine-2,6-diamine] | 0.144 | 0.003 |  | 0.024 | 0.068 |
| CCCCn1c(C)nc2ccc(-c3ccnc(N)c3)nc21 [Example 236, 4-(3-butyl-2-methyl-3H-imidazo[4,5-b]pyridin-5-yl)pyridin-2-amine] |  | 0.013 |  | 0.023 | 0.018 |
| Cc1nc2ccc(-c3ccnc(N)c3)nc2n1CC1CC1 [Example 238, 4-[3-(cyclopropylmethyl)-2-methyl-3H-imidazo[4,5-b]pyridin-5-yl]pyridin-2-amine] |  | 0.009 |  | 0.05 | 0.02 |
